The text below walks through data of patent publication US20130252814A1, “SYNERGISTIC HERBICIDAL COMPOSITION CONTAINING PENOXSULAM AND PRETILACHLOR” (DOW AGROSCIENCES LLC, priority 2011, published 2013).

SMILES strings stand for the structures.

In this assay the test system is ECHCG - Echinochloa crus-galli (barnyardgrass). Description: Preemergence herbicidal activity of mixtures under field conditions, seeded rice, field trial Taiwan. It is filed as in vivo. The protocol: A field trial was conducted in rice in Taiwan using standard herbicide small plot research methodology. Plot size was 1 meter (m) wide by 1 m long. There were 3 replicates per treatment. Soil type was medium texture. Rice was sown by hand direct dry seeding as per normal local cultural practices. The rice crop was grown using normal cultural practices for fertilization, watering, flooding and maintenance to ensure good growth of the crop and the weeds. Treatments were applied by backpack sprayer using compressed air at 30 pounds per square inch (psi) spray pressure. Spray tips were Flat Fan Teejet nozzles, delivering a spray volume of 300 liters per hectare (L/ha). For each treatment, the appropriate formulated product amount to treat the plot area, to achieve the desired application rate, based on unit area of application (hectare), was calculated, measured, and mixed in water prior to applying with the backpack sprayer. Treatments were rated as compared to the untreated control plots. The treated plots and control plots were rated blind at various intervals after application. Ratings were based of Percent (%) Visual weed control, where 0 corresponds to no injury and 100 corresponds to complete kill. Colby's equation was used to determine the herbicidal effects expected from the mixtures (Colby, S. R. Calculation of the synergistic and antagonistic response of herbicide combinations. Weeds 1967, 15, 20-22). The following equation was used to calculate the expected activity of mixtures containing two active ingredients, A and B: Expected=A+B−(A×B/100) A=observed efficacy of active ingredient A at the same concentration as used in the mixture and B=observed efficacy of active ingredient B at the same concentration as used in the mixture.

Take `CCCOCCN(C(=O)CCl)c1c(CC)cccc1CC` [Pretilachlor, 2-chloro-N-(2,6-diethylphenyl)-N-(2-propoxyethyl)acetamide]: the “% Control ECHCG Obs” value reads like this: (7 days after preemergence application, pretilachlor 270 gr ai/ha) 3%; (7 days after preemergence application, pretilachlor 540 gr ai/ha) 3%; (28 days after preemergence application, pretilachlor 270 gr ai/ha) 0%; (28 days after preemergence application, pretilachlor 540 gr ai/ha) 0%.

For `COc1cnc(OC)n2nc(NS(=O)(=O)c3c(OCC(F)F)cccc3C(F)(F)F)nc12` [Penoxsulam, 2-(2,2-difluoroethoxy)-N-(5,8-dimethoxy-[1,2,4]triazolo[1,5-c]pyrimidin-2-yl)-6-(trifluoromethyl)benzenesulfonamide], the “% Control ECHCG Obs” value is 47% (7 days after preemergence application, penoxsulam 7.5 gr ai/ha); 95% (7 days after preemergence application, penoxsulam 23 gr ai/ha); 7% (28 days after preemergence application, penoxsulam 7.5 gr ai/ha); 80% (28 days after preemergence application, penoxsulam 15 gr ai/ha).
